Assay results reported in patent US20250179052A1, “PYRIMIDINYL-OXY-QUINOLINE BASED HERBICIDAL COMPOUNDS” (SYNGENTA CROP PROTECTION AG, priority 2022, published 2025).

Legend:
Conditions in all cases: 250 g/ha, evaluated after 13 days, five-point scale
AMAPA [1] = experiment: Pre-emergence herbicidal glasshouse test; assay type: in vivo, Amaranthus tuberculatus
[2] = test system: Echinochloa crus-galli (ECHCG); experiment: Post-emergence herbicidal glasshouse test; assay type: in vivo
[3] = test system: Amaranthus retoflexus (AMARE); experiment: Pre-emergence herbicidal glasshouse test; assay type: in vivo
[4] = test system: Echinochloa crus-galli (ECHCG); experiment: Pre-emergence herbicidal glasshouse test; assay type: in vivo
[5] = test system: Amaranthus retoflexus (AMARE); experiment: Post-emergence herbicidal glasshouse test; assay type: in vivo
AMAPA [6] = experiment: Post-emergence herbicidal glasshouse test; assay type: in vivo, Amaranthus tuberculatus
[7] = test system: Ipomoea hederacea (IPOHE); experiment: Post-emergence herbicidal glasshouse test; assay type: in vivo
[8] = test system: Ipomoea hederacea (IPOHE); experiment: Pre-emergence herbicidal glasshouse test; assay type: in vivo

SMILES | percentage damage caused to the plant, AMAPA (AMAPA [1]) | percentage damage caused to the plant, ECHCG [2] | percentage damage caused to the plant, AMARE [3] | percentage damage caused to the plant, ECHCG [4] | percentage damage caused to the plant, AMARE [5] | percentage damage caused to the plant, AMAPA (AMAPA [6]) | percentage damage caused to the plant, IPOHE [7] | percentage damage caused to the plant, IPOHE [8]
Fc1cnc(Oc2ccc(Cl)c3nc(C(F)(F)Cl)ncc23)nc1 [Compound 1.043] | 4 (4=61-80%) | 1 (1=0-20%) | 4 (4=61-80%) | 1 (1=0-20%) | 3 (3=41-60%) | 3 (3=41-60%) | 2 (2=21-40%) | 1 (1=0-20%)
Cc1cnc(Oc2cccc3nc(C(F)(F)Cl)ncc23)nc1 [Compound 1.056, 2-[chloro(difluoro)methyl]-5-(5-methylpyrimidin-2-yl)oxy-quinazoline] | 5 (5=81-100%) | 3 (3=41-60%) | 5 (5=81-100%) | 5 (5=81-100%) | 2 (2=21-40%) | 4 (4=61-80%) | 4 (4=61-80%) | 5 (5=81-100%)
Fc1cnc(Oc2cccc3nc(C(F)(F)F)ccc23)nc1 [Compound 1.042] | 5 (5=81-100%) | 4 (4=61-80%) | 5 (5=81-100%) | 5 (5=81-100%) | 5 (5=81-100%) | 5 (5=81-100%) | 4 (4=61-80%) | 5 (5=81-100%)
Cc1ccc(Oc2ncc(F)cn2)c2ccc(C(F)(F)F)nc12 [Compound 1.029] | 3 (3=41-60%) | 1 (1=0-20%) | 2 (2=21-40%) | 1 (1=0-20%) | 3 (3=41-60%) | 4 (4=61-80%) | 2 (2=21-40%) | 1 (1=0-20%)
Cc1ccc(Oc2ncc(Br)cn2)c2cnc(C(F)F)nc12 [Compound 1.023] | 1 (1=0-20%) | 1 (1=0-20%) | 2 (2=21-40%) | 1 (1=0-20%) | 2 (2=21-40%) | 3 (3=41-60%) | 1 (1=0-20%) | 1 (1=0-20%)
Cc1ccc(Oc2ncc(F)cn2)c2cnc(C(F)(F)Cl)nc12 [Compound 1.049] | 1 (1=0-20%) | 1 (1=0-20%) | 1 (1=0-20%) | 1 (1=0-20%) | 2 (2=21-40%) | 3 (3=41-60%) | 2 (2=21-40%) | 1 (1=0-20%)
Cc1ccc(Oc2ncc(Cl)cn2)c2cnc(C(F)(F)Cl)nc12 [Compound 1.048] | 1 (1=0-20%) | 1 (1=0-20%) |  | 1 (1=0-20%) | 2 (2=21-40%) | 2 (2=21-40%) | 1 (1=0-20%) | 1 (1=0-20%)
FC(F)(Cl)c1ncc2c(Oc3ncc(Cl)cn3)cccc2n1 [Compound 1.057] | 5 (5=81-100%) | 4 (4=61-80%) | 5 (5=81-100%) | 5 (5=81-100%) | 4 (4=61-80%) | 4 (4=61-80%) | 4 (4=61-80%) | 5 (5=81-100%)
Cc1nc(C(F)F)nc2cccc(Oc3ncc(Br)cn3)c12 [Compound 1.051] | 1 (1=0-20%) | 1 (1=0-20%) | 1 (1=0-20%) | 1 (1=0-20%) | 1 (1=0-20%) | 1 (1=0-20%) | 1 (1=0-20%) | 1 (1=0-20%)
FC(F)(F)c1ccc2c(Oc3ncc(Cl)cn3)ccc(Br)c2n1 [Compound 1.032] | 1 (1=0-20%) | 1 (1=0-20%) | 1 (1=0-20%) | 1 (1=0-20%) | 2 (2=21-40%) | 2 (2=21-40%) | 1 (1=0-20%) | 1 (1=0-20%)
Cc1ccc(Oc2ncc(Cl)cn2)c2cnc(C(F)(F)F)nc12 [Compound 1.028] | 5 (5=81-100%) | 1 (1=0-20%) | 5 (5=81-100%) | 2 (2=21-40%) | 2 (2=21-40%) | 3 (3=41-60%) | 2 (2=21-40%) | 1 (1=0-20%)
Cc1nc(C(F)(F)Cl)nc2cccc(Oc3ncc(F)cn3)c12 [Compound 1.038] | 5 (5=81-100%) | 3 (3=41-60%) | 5 (5=81-100%) | 4 (4=61-80%) | 4 (4=61-80%) | 5 (5=81-100%) | 3 (3=41-60%) | 5 (5=81-100%)
FC(F)(F)c1ccc2c(Oc3ncc(Br)cn3)ccc(Br)c2n1 [Compound 1.034] | 1 (1=0-20%) | 1 (1=0-20%) | 1 (1=0-20%) | 1 (1=0-20%) | 1 (1=0-20%) | 1 (1=0-20%) | 1 (1=0-20%) | 1 (1=0-20%)
Cc1cnc(Oc2ccc(C)c3nc(C(F)(F)Cl)ncc23)nc1 [Compound 1.036] | 3 (3=41-60%) | 1 (1=0-20%) | 4 (4=61-80%) | 1 (1=0-20%) | 2 (2=21-40%) | 3 (3=41-60%) | 1 (1=0-20%) | 1 (1=0-20%)
Cc1cnc(Oc2ccc(Cl)c3nc(C(F)(F)Cl)ncc23)nc1 [Compound 1.037] | 4 (4=61-80%) | 1 (1=0-20%) | 5 (5=81-100%) | 1 (1=0-20%) | 2 (2=21-40%) | 2 (2=21-40%) | 1 (1=0-20%) | 1 (1=0-20%)
Cc1nc(C(F)F)nc2cccc(Oc3ncc(Cl)cn3)c12 [Compound 1.067] | 3 (3=41-60%) | 1 (1=0-20%) |  | 1 (1=0-20%) | 4 (4=61-80%) | 4 (4=61-80%) | 3 (3=41-60%) | 2 (2=21-40%)
